Assay results: ChEMBL document CHEMBL3603804, “Cyclin dependent kinase (CDK) inhibitors as anticancer drugs” (Bioorg Med Chem Lett, 2015)
Each block holds one molecule with its values, some of them ahead of it.

Assays:
Carbonic anhydrase 2 = Carbonic anhydrase 2 (Homo sapiens, UniProt P00918); experiment: Inhibition of carbonic anhydrase-2 (unknown origin)
[1] = target: T1, Cyclin-dependent kinase 2/cyclin E1 (Homo sapiens, UniProt P24941); experiment: Inhibition of recombinant CDK2/GST-fused cyclin E (unknown origin) expressed in baculovirus infected insect Sf9 cells by substrate phosphorylation assay in presence of [33P]-gamma adenosine triphosphate
[2] = target: Vascular endothelial growth factor receptor 2 (Homo sapiens, UniProt P35968); experiment: Inhibition of VEGFR2 (unknown origin)
MCF7 = experiment: Cytotoxicity against human MCF7 cells assessed as growth inhibition after 96 hrs; format: functional, cell-based; conditions: MCF7, 96 h
[3] = target: T2, Cyclin-dependent kinase 1/cyclin B1 (Homo sapiens, UniProt P06493); experiment: Inhibition of recombinant CDK1/GST-fused cyclin B (unknown origin) expressed in baculovirus infected insect Sf9 cells by substrate phosphorylation assay in presence of [33P]-gamma adenosine triphosphate
[4] = Chemical stability of the compound in phosphate buffer assessed as remaining compound at pH 1.2 at 37 degC after 3 hrs; format: physicochemical; conditions: read-out: Stability
[5] = target: T3, Cyclin-dependent kinase 4/cyclin D1 (Homo sapiens, UniProt P11802); experiment: Inhibition of CDK4/cyclin D1 (unknown origin) expressed in baculovirus infected insect Sf9 cells assessed as inhibition of GST-tagged Rb phosphorylation after 30 mins in presence of [33P]-ATP
[6] = target: T1, Cyclin-dependent kinase 2/cyclin E1; experiment: Inhibition of CDK2/cyclin E (unknown origin) expressed in baculovirus infected insect Sf9 cells assessed as inhibition of GST-tagged Rb phosphorylation after 30 mins in presence of [33P]-ATP
HCT-116 = experiment: Cytotoxicity against human HCT116 cells assessed as growth inhibition after 3 days by MTT assay; format: functional, cell-based; conditions: HCT-116, 72 h
[7] = target: T4, Cyclin-dependent kinase 4/6 (Homo sapiens, UniProt P11802+Q00534); experiment: Inhibition of CDK4/6 in human COLO205 cells assessed as inhibition of Rb phosphorylation after 24 hrs by propidium iodide staining-based laser-scanning fluorescence microplate cytometric analysis; format: cell-based; conditions: colo 205
[8] = target: T2, Cyclin-dependent kinase 1/cyclin B1; format: protein-complex assay
[9] = target: T3, Cyclin-dependent kinase 4/cyclin D1; experiment: Inhibition of human CDK4/cyclin D1 expressed in insect cells assessed as phosphorylation of CTRF after 50 mins by microplate scintillation counter
[10] = target: T4, Cyclin-dependent kinase 4/6; experiment: Inhibition of CDK4/6 in human COLO205 cells assessed as maximum cell cycle arrest at G1 phase after 24 hrs by propidium iodide staining-based flow cytometric analysis; conditions: COLO 205
Jurkat = experiment: Cytotoxicity against human Jurkat cells assessed as cell viability after 72 hrs by resazurin assay; format: functional, cell-based
MDA-MB-468 = experiment: Antiproliferative activity against Rb-negative human MDA-MB-468 cells assessed as inhibition of [14C]-thymidine incorporation into DNA preincubated for 24 hrs followed by [14C]-thymidine addition measured after 72 hrs by beta plate counting analysis; format: cell-based
[11] = target: T5, Cyclin-dependent kinase 2/cyclin A (Homo sapiens, UniProt P24941); experiment: Competitive inhibition of human CDK2/cyclinA using PKTPKKAKKL as substrate in presence of ATP; format: protein-complex assay
[12] = target: T5, Cyclin-dependent kinase 2/cyclin A; experiment: Non-competitive inhibition of human CDK2/cyclinA using PKTPKKAKKL as substrate in presence of ATP; format: protein-complex assay
MDA-MB-231 = experiment: Cytotoxicity against human MDA-MB-231 cells; format: functional, cell-based

T3 sequence (P11802 whole entry): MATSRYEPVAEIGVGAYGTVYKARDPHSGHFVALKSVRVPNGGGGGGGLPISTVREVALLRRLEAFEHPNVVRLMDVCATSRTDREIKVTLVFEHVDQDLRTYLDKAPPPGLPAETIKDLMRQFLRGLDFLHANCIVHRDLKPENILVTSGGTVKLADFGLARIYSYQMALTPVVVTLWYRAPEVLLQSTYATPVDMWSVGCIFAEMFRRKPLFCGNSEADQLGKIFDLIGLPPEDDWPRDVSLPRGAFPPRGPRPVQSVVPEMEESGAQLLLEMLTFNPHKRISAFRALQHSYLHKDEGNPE
T3 sequence (P24385 whole entry, further chain): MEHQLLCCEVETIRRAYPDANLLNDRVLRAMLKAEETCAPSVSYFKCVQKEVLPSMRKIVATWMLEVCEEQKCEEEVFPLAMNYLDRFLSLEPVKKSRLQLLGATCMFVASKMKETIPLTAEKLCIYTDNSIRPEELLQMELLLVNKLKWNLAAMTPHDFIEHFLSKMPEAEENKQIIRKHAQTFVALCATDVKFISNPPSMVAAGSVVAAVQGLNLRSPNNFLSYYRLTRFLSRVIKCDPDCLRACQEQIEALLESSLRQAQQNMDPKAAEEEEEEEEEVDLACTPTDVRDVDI
T2 sequence (P06493 whole entry, the tested form may be a part): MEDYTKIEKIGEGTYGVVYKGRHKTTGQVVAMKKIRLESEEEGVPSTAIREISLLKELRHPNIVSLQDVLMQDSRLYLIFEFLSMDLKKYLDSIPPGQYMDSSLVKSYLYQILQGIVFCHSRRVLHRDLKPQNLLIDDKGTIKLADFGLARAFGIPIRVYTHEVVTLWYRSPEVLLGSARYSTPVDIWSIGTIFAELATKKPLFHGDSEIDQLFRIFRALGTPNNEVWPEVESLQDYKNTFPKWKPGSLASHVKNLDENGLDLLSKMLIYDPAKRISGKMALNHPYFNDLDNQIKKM
T2 sequence (P14635 whole entry, further chain, the tested form may be a part): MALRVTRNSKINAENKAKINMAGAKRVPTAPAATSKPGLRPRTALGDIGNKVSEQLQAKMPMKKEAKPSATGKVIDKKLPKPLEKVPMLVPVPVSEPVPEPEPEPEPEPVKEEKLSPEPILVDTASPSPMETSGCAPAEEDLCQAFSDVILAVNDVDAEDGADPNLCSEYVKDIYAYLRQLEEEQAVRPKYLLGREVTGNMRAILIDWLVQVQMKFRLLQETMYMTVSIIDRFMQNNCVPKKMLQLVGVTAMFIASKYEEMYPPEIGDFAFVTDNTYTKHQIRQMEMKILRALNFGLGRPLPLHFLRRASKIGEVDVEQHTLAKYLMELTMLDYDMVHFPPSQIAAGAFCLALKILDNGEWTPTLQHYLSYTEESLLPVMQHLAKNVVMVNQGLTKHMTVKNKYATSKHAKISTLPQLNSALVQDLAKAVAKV
Chain of Vascular endothelial growth factor receptor 2 (P35968 whole entry): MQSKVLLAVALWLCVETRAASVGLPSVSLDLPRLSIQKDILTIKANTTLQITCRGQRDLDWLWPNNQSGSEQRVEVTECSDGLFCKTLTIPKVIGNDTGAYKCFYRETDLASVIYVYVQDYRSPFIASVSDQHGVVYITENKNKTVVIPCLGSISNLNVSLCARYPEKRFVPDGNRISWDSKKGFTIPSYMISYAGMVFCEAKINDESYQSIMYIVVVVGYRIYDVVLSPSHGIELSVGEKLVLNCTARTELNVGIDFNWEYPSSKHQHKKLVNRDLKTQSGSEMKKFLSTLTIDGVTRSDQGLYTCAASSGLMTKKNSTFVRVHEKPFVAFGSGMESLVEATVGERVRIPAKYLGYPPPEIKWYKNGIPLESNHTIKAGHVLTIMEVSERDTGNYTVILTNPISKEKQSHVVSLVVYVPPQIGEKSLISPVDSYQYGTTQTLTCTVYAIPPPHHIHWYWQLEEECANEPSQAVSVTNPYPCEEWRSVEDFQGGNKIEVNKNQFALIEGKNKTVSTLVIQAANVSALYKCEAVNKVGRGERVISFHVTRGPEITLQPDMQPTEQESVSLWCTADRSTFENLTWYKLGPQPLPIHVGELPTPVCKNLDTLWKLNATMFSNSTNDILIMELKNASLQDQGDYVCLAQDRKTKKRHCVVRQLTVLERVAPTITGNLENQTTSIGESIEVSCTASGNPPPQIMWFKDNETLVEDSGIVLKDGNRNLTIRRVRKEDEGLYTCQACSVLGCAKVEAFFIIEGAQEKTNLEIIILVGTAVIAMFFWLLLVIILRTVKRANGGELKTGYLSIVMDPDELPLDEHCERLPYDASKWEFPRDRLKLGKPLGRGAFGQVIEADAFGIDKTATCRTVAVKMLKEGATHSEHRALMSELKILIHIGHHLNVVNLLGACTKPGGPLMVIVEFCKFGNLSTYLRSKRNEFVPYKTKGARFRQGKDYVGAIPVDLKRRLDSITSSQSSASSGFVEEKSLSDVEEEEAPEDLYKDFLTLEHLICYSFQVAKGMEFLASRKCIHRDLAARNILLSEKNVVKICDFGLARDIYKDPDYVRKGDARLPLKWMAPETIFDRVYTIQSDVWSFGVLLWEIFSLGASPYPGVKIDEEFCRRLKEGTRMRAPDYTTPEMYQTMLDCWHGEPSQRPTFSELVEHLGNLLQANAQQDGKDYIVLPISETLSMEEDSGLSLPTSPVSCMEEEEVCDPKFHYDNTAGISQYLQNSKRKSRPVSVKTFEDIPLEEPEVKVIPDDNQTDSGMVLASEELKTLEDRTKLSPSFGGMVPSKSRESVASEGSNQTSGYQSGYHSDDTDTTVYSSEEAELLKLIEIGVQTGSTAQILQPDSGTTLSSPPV
T4 sequence (P11802 whole entry, looked up): as the sequence (P11802 whole entry) above
T4 sequence (Q00534 whole entry, looked up): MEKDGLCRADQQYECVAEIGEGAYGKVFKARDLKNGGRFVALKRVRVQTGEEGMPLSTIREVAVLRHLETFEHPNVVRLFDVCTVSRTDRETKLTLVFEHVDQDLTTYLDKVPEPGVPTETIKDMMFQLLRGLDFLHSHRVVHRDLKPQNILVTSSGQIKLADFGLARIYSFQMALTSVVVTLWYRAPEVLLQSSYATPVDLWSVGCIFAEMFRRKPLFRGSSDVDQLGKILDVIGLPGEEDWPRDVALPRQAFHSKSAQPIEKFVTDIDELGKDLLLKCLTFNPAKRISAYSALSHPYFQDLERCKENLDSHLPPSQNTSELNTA

Compound: C[C@@H](O)[C@@H](C)Nc1nc(Nc2ccc([S+](N)[O-])cc2)ncc1Br (stereo partly drawn)
IC50 [1]: 0.01 µM
IC50 [2]: 0.059 µM
IC50 (MCF7): 0.03 µM
IC50 (Carbonic anhydrase 2): 0.403 µM
IC50 [3]: 0.01 µM

Compound: CC(N)c1csc(/C=N/Nc2ncnc3sc(C(C)C(C)C)cc23)n1 (stereo not drawn)
remaining at 3 h [4]: 83%
IC50 [5]: 0.022 µM
IC50 [6]: 0.88 µM
IC50 (HCT-116): 0.315 µM

Compound: C[C@H](CO)Nc1nc(Nc2ccc(S(N)(=O)=O)cc2)ncc1Br
IC50 [1]: 0.004 µM
IC50 [2]: 0.034 µM
IC50 (MCF7): 0.266 µM
IC50 (Carbonic anhydrase 2): 0.514 µM
IC50 [3]: 0.5 µM

Compound: CN(C)C/C=C/C(=O)Nc1ccc(C(=O)Nc2cccc(Nc3ncc(Cl)c(-c4c[nH]c5ccccc45)n3)c2)cc1
IC50 (Jurkat): 0.05 µM

Compound: CC(C)(C)c1cc2c(N/N=C/c3nccs3)ncnc2s1
remaining at 3 h [4]: 79%
IC50 [5]: 0.041 µM
IC50 [6]: 0.2 µM
IC50 (HCT-116): 0.419 µM

Compound: C[C@@H](O)[C@@H](C)Oc1nc(Nc2ccc(S(=N)(=O)C3CC3)cc2)ncc1C(F)(F)F (stereo partly drawn) [RONICICLIB]
IC50 (MCF7): 0.015 µM

Compound: N[S+]([O-])c1ccc(/N=N/c2ccc(O)[nH]c2=O)cc1 (stereo not drawn)
IC50 [11]: 45 µM

Compound: C[C@@H](O)[C@@H](C)Oc1nc(Nc2ccc([S+](N)[O-])cc2)ncc1Br (stereo partly drawn)
IC50 [1]: 0.009 µM
IC50 [2]: 0.122 µM
IC50 (MCF7): 0.048 µM
IC50 [3]: 0.004 µM

Compound: CC1=C(C(=O)OC2CCCCC2)C(c2ccc([N+](=O)[O-])cc2)C2=C(CC(C)(C)CC2=O)N1 (stereo not drawn)
IC50 [12]: 71 µM
IC50 (MDA-MB-231): 4 µM

Compound: CC(N)c1csc(/C=N/Nc2ncnc3sc(C(C)(C)C)cc23)n1 (stereo not drawn)
remaining at 3 h [4]: 81%
IC50 [5]: 0.019 µM
IC50 [6]: 0.83 µM
IC50 (HCT-116): 0.177 µM

Compound: C#CCNc1nc(Nc2ccccc2)ncc1Br
IC50 [1]: 0.1 µM
IC50 (MCF7): 4 µM
IC50 [3]: 0.1 µM

Compound: CC(Nc1cc(N2CCOCC2)ccc1[N+](=O)[O-])C12CC3CC(CC(C3)C1)C2 (stereo not drawn)
IC50 [12]: 27 µM
IC50 (MDA-MB-231): > 50 µM

The next lines start with results.

IC50 (Carbonic anhydrase 2): > 10 µM
Compound: C[C@@H](O)[C@@H](C)Oc1nc(Nc2ccc([S@](=N)(=O)C3CC3)cc2)ncc1C(F)(F)F [RONICICLIB]

IC50 [7]: 0.042 µM
IC50 [8]: 0.222 µM
IC50 [9]: 0.002 µM
INH [10]: 0.2 µM
Compound: Cc1nc2ccc(-c3ccnc(Nc4ccc(N5CCNCC5)cn4)n3)cc2n1C(C)C

IC50 [8]: 0.004 µM
IC50 [9]: 0.004 µM
Compound: COc1ccc(Nc2nccc(-c3ccc4nc(C)n(C(C)C)c4c3)n2)cc1

IC50 [1]: 0.002 µM
IC50 [2]: 0.032 µM
IC50 (Carbonic anhydrase 2): > 10 µM
IC50 [3]: 0.003 µM
Compound: CC[S@@](=N)(=O)c1ccc(Nc2ncc(Br)c(N[C@H](C)[C@@H](C)O)n2)cc1
IC50 (MCF7): 0.044 µM

IC50 (MDA-MB-468): > 3 µM
Compound: CC(=O)c1c(C)c2cnc(Nc3ccc(N4CCNCC4)cn3)nc2n(C2CCCC2)c1=O [PALBOCICLIB]

IC50 [7]: 0.089 µM
IC50 [8]: 1.01 µM
IC50 [9]: 0.002 µM
INH [10]: 2.2 µM
Compound: Cc1nc2ccc(-c3ccnc(Nc4ccc(CN5CCN(C(C)C)CC5)cn4)n3)cc2n1C(C)C
